Activity calls are given as the source filed them. The rule behind the calls is not given here.

This passage reports IC50 results from PubChem BioAssay AID651852 (Vanderbilt Specialized Chemistry Center, 2012).

The target of this experiment is Metabotropic glutamate receptor 5 (Rattus norvegicus) (UniProt P31424). As to the kind of experiment: PubChem AID 651852. The following applies: HEK293 rat mGluR5 membranes, radioligand competition binding. (In a radioligand displacement assay an active substance lowers the binding of a labelled ligand.)
Chain of Metabotropic glutamate receptor 5 (Rattus norvegicus) (P31424 whole entry, looked up): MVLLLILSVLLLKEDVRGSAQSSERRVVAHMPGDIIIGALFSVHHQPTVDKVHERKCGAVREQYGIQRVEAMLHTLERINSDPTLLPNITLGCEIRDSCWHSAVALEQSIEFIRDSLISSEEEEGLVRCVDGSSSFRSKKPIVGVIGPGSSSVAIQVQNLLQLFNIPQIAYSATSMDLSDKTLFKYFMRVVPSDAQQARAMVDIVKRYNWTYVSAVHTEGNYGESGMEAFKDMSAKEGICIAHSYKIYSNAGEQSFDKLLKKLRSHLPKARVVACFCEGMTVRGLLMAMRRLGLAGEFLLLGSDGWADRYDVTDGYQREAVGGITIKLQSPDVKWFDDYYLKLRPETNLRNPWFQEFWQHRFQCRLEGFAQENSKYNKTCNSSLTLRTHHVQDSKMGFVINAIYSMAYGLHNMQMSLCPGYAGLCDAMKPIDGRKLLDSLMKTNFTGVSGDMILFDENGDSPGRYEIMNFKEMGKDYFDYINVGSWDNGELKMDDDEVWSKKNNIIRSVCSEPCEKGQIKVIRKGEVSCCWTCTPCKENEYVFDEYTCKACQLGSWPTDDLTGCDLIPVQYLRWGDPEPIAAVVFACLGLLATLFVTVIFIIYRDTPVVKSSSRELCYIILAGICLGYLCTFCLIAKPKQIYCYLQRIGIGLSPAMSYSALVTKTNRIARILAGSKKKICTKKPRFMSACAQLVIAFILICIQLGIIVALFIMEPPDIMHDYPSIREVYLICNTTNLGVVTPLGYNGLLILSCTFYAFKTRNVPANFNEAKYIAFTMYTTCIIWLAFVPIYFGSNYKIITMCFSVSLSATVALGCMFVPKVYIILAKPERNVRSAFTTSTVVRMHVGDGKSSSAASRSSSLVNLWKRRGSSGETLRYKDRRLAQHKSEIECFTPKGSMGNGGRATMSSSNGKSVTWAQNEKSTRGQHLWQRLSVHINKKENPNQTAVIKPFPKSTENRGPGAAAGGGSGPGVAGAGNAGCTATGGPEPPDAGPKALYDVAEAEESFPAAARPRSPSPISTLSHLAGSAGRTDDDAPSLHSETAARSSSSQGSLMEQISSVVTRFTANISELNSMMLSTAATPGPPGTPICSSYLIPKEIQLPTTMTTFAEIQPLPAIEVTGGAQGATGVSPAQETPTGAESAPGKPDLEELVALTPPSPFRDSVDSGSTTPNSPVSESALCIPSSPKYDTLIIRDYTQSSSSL

Broadly, the IC50 is the concentration that inhibits the measured activity by half. As for `CS(=O)(=O)N(CC(=O)NCC1CC1)c1cc(C(F)(F)F)ccc1Cl`, the IC50 is > 30 µM (inactive).

For the molecule `O=S(=O)(c1ccc(F)cc1)N1CCCC(c2nc(-c3ccc(F)cc3)no2)C1` (stereo not drawn), the IC50 is > 30 µM (inactive).

Consider `O=S(=O)(c1ccc(C#Cc2cccc(F)c2)cc1)N1CCOCC1`, for which the IC50 was > 30 µM (inactive).
